Test results as given in patent US7419960B2, “Hemiterpene glycosides with anti-platelet aggregation activities from Ilex pubescens” (Hong Kong Baptist University, priority 2005, dated 2008).
Marks after values point to notes of the source that are not given here.

Test system: platelet-rich-plasma (PRP)
Test: Shear-induced platelet aggregation (SIPA) in platelet-rich-plasma, determined by turbidity
Assay type: cell-based, Sprague-Dawley rats
Conditions: 10 μM; for Platelet aggregation rate (%) ( X ± SD): n=10, rat PRP, shear stress 15 Pa for 360 seconds, 37° C., PPP = 100%, pre-shear PRP = 0% aggregation, Control 54.400 ± 8.592; for anti-platelet aggregation activity compared with salvianolic acid B and aspirin: high shear stress-induced platelet activation and aggregation test
Procedure: Preparation of platelet-rich-plasma (PRP): Sprague-Dawley rats (350-450 g) were used as blood donors to collect anticoagulated blood. Collected blood samples were immediately transferred into a plastic tube anticoagulant ( 1/10 volume of 3.8% trisodium citrate, pH 7.4). The platelet-rich-plasma (PRP) was then prepared by centrifuging the blood at 300 rpm for 15 minutes. The platelet concentration was adjusted to a level of 5×10^5/μl by addition of homologous platelet-poor-plasma (PPP) obtained after further centrifugation of blood at 1500 rpm for 15 minutes. For getting sufficient amount of PRP, at least two rats have to be sacrificed each time to obtain a pooled PRP sample.
Shear-induced platelet aggregation (SIPA): Adjusted PRP was divided into different groups according to the experimental protocol, mixed with 10 μM of pubescenosides A, B, aspirin and Salvianolic acid B. HAAke Rheometer RS 600 (Thermo Haake Corp., Ltd., Germany) with sensor C60/0.5° was employed as shear generator. The rheometer has the benefit of controlling shear stress and with an accuracy of 1 μm by the automatic adjustment of the gap between cone and plate. The shear program for PRP is: preheating sample at 37° C., increasing stress level from 0 to 15 Pa in the duration of 30 seconds, and then maintaining the stress level at 15 Pa for 360 seconds. After shearing, PRP was transferred to a platelet aggregometer (Chrono-Log aggregometer, Model 560 CA, Chrono-Log Corp., U.S.A) and SIPA was determined by turbidity. Since platelet-poor-plasma (PPP) and the pre-shear PRP were used as the turbidity scales of 100% and 0% aggregation, respectively, the aggregative degree of post-shear PRP could be measured.

Structure (SMILES) | Platelet aggregation rate (%) ( X ± SD) | anti-platelet aggregation activity compared with salvianolic acid B and aspirin
C=C(CO)C(CO[C@@H]1OC(CO)[C@@H](O)C(O)C1O)OC(=O)/C=C/c1ccc(O)c(O)c1 (stereo partly drawn) [Pubescenoside B, 4-hydroxy-2-caffeoyloxy-3-methylene-butane-1-O-β-D-glucopyranoside] | 27.300 ± 10.263*^□ % | much stronger
CC(=O)Oc1ccccc1C(=O)O [Aspirin, aspirin, reference compound] | 44.700 ± 4.668 % | –
C=C(COC(=O)/C=C/c1ccc(O)c(O)c1)C(O)CO[C@@H]1O[C@H](CO)[C@@H](O)[C@H](O)[C@H]1O (stereo partly drawn) [Pubescenoside A, 4-caffeoyloxy-2-hydroxy-3-methylene-butane-1-O-β-D-glucopyranoside] | 36.550 ± 7.697*^▪▴ % | much stronger
O=C(/C=C/c1ccc(O)c2c1[C@H](C(=O)O[C@H](Cc1ccc(O)c(O)c1)C(=O)O)[C@@H](c1ccc(O)c(O)c1)O2)O[C@H](Cc1ccc(O)c(O)c1)C(=O)O [Salvianolic acid B, salvianolic acid B, reference compound] | 39.650 ± 8.577 % | –
